Measured values reported in patent US7285569B2, “Tricycles, their manufacture and use as pharmaceutical agents” (Hoff Hoffmann-La Roche Inc., priority 2004, dated 2007).

Legend:
[1] = test system: HCT 116 cells; assay: CellTiter-Glo assay in HCT 116 cells (antiproliferative activity); format: cell-based; details: HCT 116 human colon carcinoma cells, 5 days (120 h) incubation, CellTiter-Glo luminescence
Excerpt: Antiproliferative Activity
CellTiter-Glo™ Assay in HCT 116 Cells
The CellTiter-Glo™ Luminescent Cell Viability Assay (Promega) is a homogeneous method of determining the number of viable cells in culture based on quantitation of the ATP present, which signals the presence of metabolically active cells.
HCT 116 cells (human colon carcinoma, ATCC-No. CCI-247) were cultivated in RPMI 1640 medium with GlutaMAX™ I (Invitrogen, Cat-No. 61870-010), 2.5% Fetal Calf Serum (FCS, Sigma Cat-No. F4135 (FBS)); 100 Units/ml penicillin/100 μg/ml streptomycin (=Pen/Strep from Invitrogen Cat. No. 15140). For the assay the cells were seeded in 384 well plates, 1000 cells per well, in the same medium. The next day the test compounds were added in various concentrations ranging from 30 μM to 0.0015 μM (10 concentrations, 1:3 diluted). After 5 days the CellTiter-Glo™ assay was done according to the instructions of the manufacturer (CellTiter-Glo™ Luminescent Cell Viability Assay, from Promega). In brief: the cell-plate was equilibrated to room temperature for approximately 30 minutes and than the CellTiter-Glo™ reagent was added. The contents were carefully mixed for 15 minutes to induce cell lysis. After 45 minutes the luminescent signal was measured in Victor 2, (scanning multiwell spectrophotometer, Wallac).
Medium: RPMI 1640 with GlutaMAX™ I (Invitrogen, Cat-Nr. 61870), 5% FCS (Sigma Cat.-No. F4135), Pen/Strep (Invitrogen, Cat No. 15140).
HCT116 (ATCC-No. CCI-247): 1000 cells in 60 μl per well of 384 well plate (Greiner 781098, μClear-plate white)
After seeding incubate plates 24 h at 37° C., 5% CO2
2nd. Day: Induction (Treatment with Compounds, 10 Concentrations):
In order to achieve a final concentration of 30 μM as highest concentration 3.5 μl of 10 mM compound stock solution were added directly to 163 μl media. Then step e) of the dilution procedure described below, was followed.
In order to achieve the second highest to the lowest concentrations, a serial dilution with dilution steps of 1:3 was followed according to the procedure (a-e) as described here below: • for the second highest concentration add 10 μl of 10 mM stock solution of compound to 20 μl dimethylsulfoxide (DMSO) • dilute 8×1:3 (always 10 μl to 20 μl DMSO) in this DMSO dilution row (results in 9 wells with concentrations from 3333.3 μM to 0.51 μM) • dilute each concentration 1:47.6 (3.5 μl compound dilution to 163 μl media) • add 10 μl of every concentration to 60 μl media in the cell plate resulting in final concentration of DMSO: 0.3% in every well and resulting in 10 final concentration of compounds ranging from 30 μM to 0.0015 μM. • Each compound is tested in triplicate. • Incubate 120 h (5 days) at 37° C., 5% CO2 Analysis:
Add 30 μl CellTiter-Glo™ Reagent (prepared from CellTiter-Glo™ Buffer and CellTiter-Glo™ Substrate (lyophilized) purchased from Promega) per well, • shake 15 minutes at room temperature • incubate further 45 minutes at room temperature without shaking Measurement:
Victor 2 scanning multiwell spectrophotometer (Wallac), Luminescence mode (0.5 sec/read, 477 nm)
Determine IC50 using a non-linear curve fit (XLfit software (ID Business Solution Ltd., Guilford, Surrey, UK))

[2] = biological target: T1, Aurora A (Homo sapiens, UniProt O14965); assay: IC50 determination for inhibitors of Aurora A (96 MTP-ELISA); format: biochemical; details: His4-tagged full-length Aurora A 250 ng/ml, PKB-GSK2 200 nM, ATP 4 μM, 90 min at room temperature; read-out: IC50 Aurora A kinase inhibition
T1 construct: C-terminally Histidine4 (His4)-tagged Aurora A full-length protein
T1 sequence (O14965 1-403): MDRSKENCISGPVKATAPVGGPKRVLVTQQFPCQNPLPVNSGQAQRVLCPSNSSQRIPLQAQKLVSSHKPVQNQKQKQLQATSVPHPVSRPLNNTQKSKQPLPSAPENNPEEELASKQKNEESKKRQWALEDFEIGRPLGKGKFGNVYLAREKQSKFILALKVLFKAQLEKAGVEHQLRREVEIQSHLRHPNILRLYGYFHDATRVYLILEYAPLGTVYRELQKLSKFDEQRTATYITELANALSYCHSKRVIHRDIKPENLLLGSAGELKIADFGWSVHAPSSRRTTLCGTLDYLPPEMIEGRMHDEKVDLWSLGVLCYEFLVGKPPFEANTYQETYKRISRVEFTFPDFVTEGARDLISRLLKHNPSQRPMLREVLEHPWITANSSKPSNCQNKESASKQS
Excerpt: IC50 Determination for Inhibitors of Aurora A
Aurora A is a serine threonine kinase involved in spindle assembly and chromosome segregation.
The assay is a typically ELISA-type assay where biotinylated substrate (PKB-GSK2) is phosphorylated. Phosphorylation is detected by peroxidase (POD) labelled polyclonal antibody (PAK<M-Ig>S-IgG-POD) and phosphopeptide monoclonal antibody (Mab) (MAK<P-GSK>M-27E5-IgG). The assay is validated for IC50-determination.
Aurora A-His-4 C-terminally Histidine4 (His4)-tagged Aurora A full-length protein, stock solution 0.7 mg/ml, final conc.: 250 ng/ml
PKB-GSK2 biotinylated peptide derived from human GSK3-alpha sequence (Biotin-SGRARTSSFAEPGG-CONH2), stock solution 600 μM, final conc.: 200 nM
ATP Adenosine-5′-triphosphate 1 mM, diluted in kinase buffer, (Roche Diagnostics GmbH, Cat. No.: 127531-001,), final conc.: 4 μM
Kinase buffer 50 mM TRIS, 10 mM MgCl2, 1 mM DTT, 0.1% Tween 20, pH 7.8
This assay is performed in 96-well format for IC50 determination with 5 samples (each with 8 concentrations by twofold testing), 100 μl incubation volume and the following plate layout:
Step/Action 1. Sample preparation: add 24 μl per well samples (descending sequence) diluted in kinase buffer to assay plate (final conc. for DMSO 1%). 2. Add directly 16 μl Aurora-A-his-4 diluted in kinase buffer to assay plate. 3. Add directly 40 μl per well PKB-GSK2/ATP mixture to assay plate, (final conc.: Aurora A=250 ng/ml, GSK2=200 nM, ATP=4 μM). Negative control: without ATP. 4. Incubate assay plate for exactly 90 min at room temperature. 5. Stop reaction by adding 20 μl EDTA in all wells. 6. Wash assay plate 3× with 200 μl washing buffer per well. 7. Add 100 μl MAK<P-GSK>M27E5-IgG (1:10000) and PAK<M-Ig>S-IgG-POD (1:6000) dissolved in 3% BSA/PBS-T to assay plate per well. 8. Incubate assay plate for 60 min at room temperature. 9. Wash assay plate 3× with 200 μl washing buffer per well 10. Add 100 μl ABTS solution to assay plate per well, incubate for approx. 4 min at RT on MTP shaker. 11. Measure absorption at 405/492 nm. 12. Calculate % inhibition as: (1−(Esample−ENC)/(EPC−ENC))×100 13. Calculate IC50 using a non-linear curve fit (XLfit software (ID Business Solution Ltd., Guilford, Surrey, UK))

SMILES | IC50 [1] [nM] | IC50 [2] [nM]
CCCc1cc(-c2nc3cc4c(cc3[nH]2)C(C)(C)C(=O)N4C(C)C)[nH]n1 [Example 35, 5-Isopropyl-7,7-dimethyl-2-(5-propyl-2H-pyrazol-3-yl)-5,7-dihydro-1H-imidazo[4,5-f]indol-6-one] | 100 to 10000 | 10 to 500
Cc1cc(-c2nc3cc4[nH]c(=O)[nH]c4cc3[nH]2)n[nH]1 [Example 9, 6-(5-Methyl-1H-pyrazol-3-yl)-3,5-dihydro-1H-benzo[1,2-d;4,5-d′]diimidazol-2-one] | 10000 to 100000 | 500 to 1500
CC(C)CCc1cc(-c2nc3cc4c(cc3[nH]2)C(C)(C)C(=O)N4)n[nH]1 [Example 18, 7,7-Dimethyl-2-[5-(3-methyl-butyl)-1H-pyrazol-3-yl]-5,7-dihydro-1H-imidazo[4,5-f]indol-6-one] | 100 to 10000 | 10 to 500
CCCN1C(=O)C(C)(C)c2cc3[nH]c(-c4cc(C(F)(F)F)n[nH]4)nc3cc21 [Example 41, 7,7-Dimethyl-5-propyl-2-(5-trifluoromethyl-2H-pyrazol-3-yl)-5,7-dihydro-1H-imidazo[4,5-f]indol-6-one] | 100 to 10000 | 500 to 1500
CC(C)Cc1cc(-c2nc3cc4c(cc3[nH]2)C(C)(C)CC(=O)N4)[nH]n1 [Example 4, 2-(5-Isobutyl-2H-pyrazol-3-yl)-8,8-dimethyl-1,5,7,8-tetrahydro-imidazo[4,5-g]quinolin-6-one] | 7650 | 500 to 1500
CCCN1C(=O)C(C)(C)c2cc3[nH]c(-c4cc(C)n[nH]4)nc3cc21 [Example 36, 7,7-Dimethyl-2-(5-methyl-2H-pyrazol-3-yl)-5-propyl-5,7-dihydro-1H-imidazo[4,5-f]indol-6-one] | 100 to 10000 | 10 to 500
Cc1cc(-c2nc3cc4c(cc3[nH]2)NC(=O)C4(C)C)n[nH]1 [Example 5, 7,7-Dimethyl-2-(5-methyl-2H-pyrazol-3-yl)-5,7-dihydro-3H-imidazo[4,5-f]indol-6-one] | 100 to 10000 | 10 to 500
